Assay results from the supplement of paper PMC10307832.

What was measured:
Experiment in all cases: relative viability (nuclei count vs DMSO), 5 days (fraction); higher = more cells survive
NCI-H1755 = test system: NCI-H1755
Outline: (§1)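 Lung cancer cell lines in 1536-well plates got either a single drug or a fixed anchor-drug dose together with five library-drug doses (not always all listed) in √10 steps, by pin tool, on the day after seeding. Nuclei were counted after 5 days, and relative viability is the treated-to-vehicle ratio of nuclei counts. Values are medians of duplicate plates.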

NCI-H1792 = test system: NCI-H1792
Outline: as §1

NCI-H1944 = test system: NCI-H1944
Outline: as §1

NCI-H1975 = test system: NCI-H1975
Outline: as §1

NCI-H2170 = test system: NCI-H2170
Outline: as §1

NCI-H23 = test system: NCI-H23
Outline: as §1

NCI-H441 = test system: NCI-H441
Outline: as §1

NCI-H520 = test system: NCI-H520
Outline: as §1

NCI-H596 = test system: NCI-H596
Outline: as §1

PC-3 [JPC-3] = test system: PC-3 [JPC-3]
Outline: as §1

SK-MES-1 = test system: SK-MES-1
Outline: as §1

SW 900 = test system: SW 900
Outline: as §1

Compound: Clc1ccc(Nc2nnc(Cc3ccncc3)c3ccccc23)cc1 [Vatalanib] + CCNC(=O)c1noc(-c2cc(C(C)C)c(O)cc2O)c1-c1ccc(CN2CCOCC2)cc1 [Luminespib] (partner 0.01 µM)
- relative viability (NCI-H1755; first compound 1.265 µM): 0.316
- relative viability (NCI-H1755; first compound 4 µM): 0.453
- relative viability (NCI-H1792; first compound 0.04 µM): 0.475
- relative viability (NCI-H1792; first compound 0.1265 µM): 0.492
- relative viability (NCI-H1792; first compound 0.4 µM): 0.4
- relative viability (NCI-H1792; first compound 1.265 µM): 0.564
- relative viability (NCI-H1792; first compound 4 µM): 0.387
- relative viability (NCI-H1944; first compound 0.04 µM): 0.796
- relative viability (NCI-H1944; first compound 0.1265 µM): 0.687
- relative viability (NCI-H1944; first compound 0.4 µM): 0.845
- relative viability (NCI-H1944; first compound 1.265 µM): 0.679
- relative viability (NCI-H1944; first compound 4 µM): 0.752
- relative viability (NCI-H1975; first compound 0.04 µM): 0.154
- relative viability (NCI-H1975; first compound 0.1265 µM): 0.238
- relative viability (NCI-H1975; first compound 0.4 µM): 0.237
- relative viability (NCI-H1975; first compound 1.265 µM): 0.29
- relative viability (NCI-H1975; first compound 4 µM): 0.177
- relative viability (NCI-H2170; first compound 0.04 µM): 0.79
- relative viability (NCI-H2170; first compound 0.1265 µM): 0.644
- relative viability (NCI-H2170; first compound 0.4 µM): 0.715
- relative viability (NCI-H2170; first compound 1.265 µM): 0.641
- relative viability (NCI-H2170; first compound 4 µM): 0.692
- relative viability (NCI-H23; first compound 0.04 µM): 0.229
- relative viability (NCI-H23; first compound 0.1265 µM): 0.213
- relative viability (NCI-H23; first compound 0.4 µM): 0.227
- relative viability (NCI-H23; first compound 1.265 µM): 0.19
- relative viability (NCI-H23; first compound 4 µM): 0.205
- relative viability (NCI-H441; first compound 0.04 µM): 0.367
- relative viability (NCI-H441; first compound 0.1265 µM): 0.251
- relative viability (NCI-H441; first compound 0.4 µM): 0.382
- relative viability (NCI-H441; first compound 1.265 µM): 0.377
- relative viability (NCI-H441; first compound 4 µM): 0.354
- relative viability (NCI-H520; first compound 0.04 µM): 0.199
- relative viability (NCI-H520; first compound 0.1265 µM): 0.19
- relative viability (NCI-H520; first compound 0.4 µM): 0.22
- relative viability (NCI-H520; first compound 1.265 µM): 0.221
- relative viability (NCI-H520; first compound 4 µM): 0.246
- relative viability (NCI-H596; first compound 0.04 µM): 0.955
- relative viability (NCI-H596; first compound 0.1265 µM): 0.941
- relative viability (NCI-H596; first compound 0.4 µM): 0.953
- relative viability (NCI-H596; first compound 1.265 µM): 1.01
- relative viability (NCI-H596; first compound 4 µM): 1.19
- relative viability (PC-3 [JPC-3]; first compound 0.04 µM): 0.697
- relative viability (PC-3 [JPC-3]; first compound 0.1265 µM): 0.688
- relative viability (PC-3 [JPC-3]; first compound 0.4 µM): 0.7
- relative viability (PC-3 [JPC-3]; first compound 1.265 µM): 0.706
- relative viability (PC-3 [JPC-3]; first compound 4 µM): 0.723
- relative viability (SK-MES-1; first compound 0.04 µM): 0.745
- relative viability (SK-MES-1; first compound 0.1265 µM): 0.845
- relative viability (SK-MES-1; first compound 0.4 µM): 1.05
- relative viability (SK-MES-1; first compound 1.265 µM): 0.679
- relative viability (SK-MES-1; first compound 4 µM): 0.6
- relative viability (SW 900; first compound 0.1265 µM): 0.178
- relative viability (SW 900; first compound 0.4 µM): 0.224
- relative viability (SW 900; first compound 1.265 µM): 0.166
- relative viability (SW 900; first compound 4 µM): 0.192
